Laboratory results: patent US20110217262A1, “Treatment of Ocular Surface Disorders by Increasing Conjunctival Vascular Permeability” (priority 2010, published 2011)

Tests used:
[1] = tested on: conjunctival blood vessels of rabbit eyes; test: Evans blue dye assay of conjunctival vascular permeability; type: in vivo, New Zealand White rabbits
Description: Method 1: Evans blue dye assay. […] Animals were anesthetized with 2-5% isofluorane gas administered via mask. The eyes were sterilized with 5% iodine (povidone iodine (HUMCO, Texarkana, Tex., USA) diluted to 5% in BSS (Alcon, Fort Worth, Tex., USA)) and 2-3 drops of 0.5% ophthalmic proparacaine (Alcon, Fort Worth, Tex., USA) was administered as a topical anesthetic. Right eyes (OD) received subconjunctival injections of 50 microliters of C-NOD in 100% DMSO. Left eyes (OS) received subconjunctival injections of 50 microliters of 100% DMSO. 40 mg/kg of Evans blue dye (Sigma-Aldrich, St. Louis, Mo., USA) was then injected into an ear vein. Eyes were photographed and tear samples were collected at 1, 2 and 3 days post injection. Tears were collected by insertion of 7 mm discs of Whatman 3M filter paper (Whatman, Inc., Piscataway, N.J., USA) under the lower eyelid for 2 minutes. The filter paper discs were stored in 200 microliters of a phosphate buffered saline solution […] at 5-10° C. Absorption at 620 nm was used to quantify Evans blue dye in tears.
An initial test of the ability of a nitric oxide donor B-NOD (Bing, R. J., Biochem. Biophys. Res. Comm. (2000) 275, 350) to increase conjunctival vascular permeability was performed. Fifty microliters of 100 mg/ml B-NOD in DMSO was injected OD, while DMSO vehicle was injected OS. Some eyes received no injection. Vascular permeability was assessed using the Evans blue dye assay. […] The difference between B-NOD and C-NOD may be due to the shorter half-life predicted for B-NOD.

rabbit eyes (tears) = test: Total protein and serum albumin assay of tears; type: in vivo, New Zealand White rabbits
Description: Prior to subconjunctival injection, tear samples were collected from the eyes of the rabbits. Tears were collected by simultaneous insertion of two 7 mm discs of Whatman 3M filter paper (Whatman, Inc., Piscataway, N.J., USA) under the lower eyelid for 2 minutes. The filter paper discs were stored in 200 microliters of a phosphate buffered saline solution containing 0.05% Tween and 0.02% sodium azide at 5-10° C. Animals were anesthetized with 2-5% isofluorane gas administered via mask. The eyes were sterilized with 5% iodine (povidone iodine (HUMCO, Texarkana, Tex., USA) diluted to 5% in BSS (Alcon, Fort Worth, Tex., USA)) and 2-3 drops of 0.5% ophthalmic proparacaine (Alcon, Fort Worth, Texan, USA) was administered as a topical anesthetic. Right eyes (OD) received subconjunctival injections of 50 microliters of C-NOD in 100% DMSO. Left eyes (OS) received subconjunctival injections of 50 microliters of 100% DMSO. Tear samples were collected at 1 hour, then every day for up to 5 days.
Protein content of tears was assessed by two methods. First, total protein was measured using a Bio-Rad Protein Assay Kit (Bio-Rad Laboratories, Hercules, Calif., USA). Second, rabbit serum albumin was measured using an Assaypro Rabbit Albumin ELISA kit (Assaypro LLC, St. Charles, Mo., USA). Both kits were used according to the manufacturer's instructions. […]

rabbit eyes = details: 1 day post-injection
Description: Initial tests on some other candidate stimulators of vascular permeability was performed.

[2] = tested on: epithelial corneal lesions in diabetic patients; details: prospective, randomized, masked clinical trial; cited from earlier work

Molecule: O=C(Oc1cccc(CO[N+](=O)[O-])c1)c1ccccc1O [B-NOD]
- Evans blue dye in tears versus uninjected eyes ([1]; 50 microliters of 100 mg/ml in DMSO, by 24 hours): This difference disappeared
- Evans blue dye in tears versus uninjected eyes ([1]; 50 microliters of 100 mg/ml in DMSO, six hours post-injection): more Evans blue dye than did uninjected eyes
- Evans blue dye in tears versus vehicle injected eyes ([1]; 50 microliters of 100 mg/ml in DMSO, throughout the experiment): about the same amount of Evans blue dye as did vehicle injected eyes

Molecule: CCOC(=O)Oc1ccccc1C(=O)Oc1cccc(CO[N+](=O)[O-])c1 [C-NOD]
- presence of subconjunctival dark Evans blue dye (photographs) ([1]; 66 mg/ml subconjunctival, 24, 48 and 72 hours post injection, versus vehicle injected eyes): evident
- Evans blue dye in tears versus DMSO vehicle injected eyes ([1]; absorption at 620 nm, in most cases, especially at 48 hours): more Evans blue dye present in the tears
- total protein content of tears (rabbit eyes (tears); 10 or 20 mg/cc, 1 day post injection, relative to uninjected eyes, N=4): significantly increased protein content of tears
- proportion of serum albumin in tears (albumin to total protein) (rabbit eyes (tears); each concentration, relative to vehicle injection, 1 hour and 5 days post-injection): increased

Molecule: NCCc1c[nH]cn1 [Histamine]
- Injection (rabbit eyes): Trace
- Mucous discharge (rabbit eyes): Trace
- observable clinical response in the eyes (rabbit eyes; conditions not optimized): observable clinical response

Molecule: NCCc1c[nH]c2ccc(O)cc12 [Serotonin]
- Chemosis (rabbit eyes): Trace
- Injection (rabbit eyes): None
- Mucous discharge (rabbit eyes): None

Molecule: hyaluronic acid
- epithelial healing time [2]: 7.1 days

B1: Angiopoietin-2: candidate stimulator of vascular permeability (protein, UniProt O15123 19-496, looked up)
Angiopoietin-2: YNNFRKSMDSIGKKQYQVQHGSCSYTFLLPEMDNCRSSSSPYVSNAVQRDAPLEYDDSVQRLQVLENIMENNTQWLMKLENYIQDNMKKEMVEIQQNAVQNQTAVMIEIGTNLLNQTAEQTRKLTDVEAQVLNQTTRLELQLLEHSLSTNKLEKQILDQTSEINKLQDKNSFLEKKVLAMEDKHIIQLQSIKEEKDQLQVLVSKQNSIIEELEKKIVTATVNNSVLQKQQHDLMETVNNLLTMMSTSNSAKDPTVAKEEQISFRDCAEVFKSGHTTNGIYTLTFPNSTEEIKAYCDMEAGGGGWTIIQRREDGSVDFQRTWKEYKVGFGNPSGEYWLGNEFVSQLTNQQRYVLKIHLKDWEGNEAYSLYEHFYLSSEELNYRIHLKGLTGTAGKISSISQPGNDFSTKDGDNDKCICKCSQMLTGGWWFDACGPSNLNGMYYPQRQNTNKFNGIKWYYWKGSGYSLKATTMMIRPADF
- Chemosis (rabbit eyes): None
- Injection (rabbit eyes): None
- Mucous discharge (rabbit eyes): None
